The experiment concerns S. Epidermidis biofilm. The experiment can be described thus: Eradication of biofilm from titanium alloy coupon by induction-heating thermal shock followed by antibiotics (FIG. 13). It is filed as cell-based. The settings on record: vancomycine 10 mg/L and rifampicine 1 mg together, 24 hours exposure in BHI culture medium, after thermal shock of 65° C. from 3.5 minutes with induction heating, N=6 or greater. An excerpt: N=6 or greater for each group.

Structures are written as SMILES.

`CO[C@H]1/C=C/O[C@@]2(C)Oc3c(C)c(O)c4c(O)c(c(/C=N/N5CCN(C)CC5)c(O)c4c3C2=O)NC(=O)/C(C)=C\C=C\[C@H](C)[C@H](O)[C@@H](C)[C@@H](O)[C@@H](C)[C@H](OC(C)=O)[C@@H]1C` [rifampicine]: the “eradication of biofilm (active count, Log (CFU/cm^2))” value is reported as “full eradication”.

On to `CN[C@H](CC(C)C)C(=O)N[C@H]1C(=O)N[C@@H](CC(N)=O)C(=O)N[C@H]2C(=O)N[C@H]3C(=O)N[C@H](C(=O)N[C@H](C(=O)O)c4cc(O)cc(O)c4-c4cc3ccc4O)[C@H](O)c3ccc(c(Cl)c3)Oc3cc2cc(c3O[C@@H]2O[C@H](CO)[C@@H](O)[C@H](O)[C@H]2O[C@H]2C[C@](C)(N)[C@H](O)[C@H](C)O2)Oc2ccc(cc2Cl)[C@H]1O` [vancomycine], for which the “eradication of biofilm (active count, Log (CFU/cm^2))” value was “full eradication”.

The values are drawn from patent publication US20250177586A1, “HEATING APPARATUS AND METHODS” (ACADEMISCH ZIEKENHUIS LEIDEN (H.O.D.N. LUMC), priority 2018, published 2025).
